Experimental findings from ChEMBL document CHEMBL1201862, “PubChem BioAssay data set” (2004) are described below.

Active and inactive are the calls of the source.

The target in test [1] is T1, Scavenger receptor class B member 1 (Mus musculus, UniProt Q61009).
T1 sequence (Q61009 whole entry): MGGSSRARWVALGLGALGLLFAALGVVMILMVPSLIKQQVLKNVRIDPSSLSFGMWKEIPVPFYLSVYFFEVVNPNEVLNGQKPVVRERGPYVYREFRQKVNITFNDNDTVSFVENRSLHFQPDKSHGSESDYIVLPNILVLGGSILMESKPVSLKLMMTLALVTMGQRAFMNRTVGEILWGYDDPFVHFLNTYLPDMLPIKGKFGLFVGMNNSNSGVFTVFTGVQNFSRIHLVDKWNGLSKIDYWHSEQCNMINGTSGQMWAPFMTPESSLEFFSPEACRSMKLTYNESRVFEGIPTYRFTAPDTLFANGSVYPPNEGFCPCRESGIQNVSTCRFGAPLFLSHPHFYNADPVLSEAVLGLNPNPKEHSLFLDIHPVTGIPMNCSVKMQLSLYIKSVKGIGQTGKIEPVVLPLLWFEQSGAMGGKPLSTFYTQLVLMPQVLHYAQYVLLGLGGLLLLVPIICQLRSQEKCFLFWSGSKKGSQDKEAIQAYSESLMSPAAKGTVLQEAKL
Briefly: mouse SR-BI DiI-HDL uptake blockers – ldlA[mSR-BI] cells, fluorescence, cherry pick, dose response (AID 493194).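 Further: cellular uptake of fluorescent DiI-labeled HDL measured as cell fluorescence.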 Type of test: functional, cell-based.

Test [2] deals with T2, Heat shock factor protein 1 (Mus musculus, UniProt P38532).
T2 sequence (P38532 whole entry): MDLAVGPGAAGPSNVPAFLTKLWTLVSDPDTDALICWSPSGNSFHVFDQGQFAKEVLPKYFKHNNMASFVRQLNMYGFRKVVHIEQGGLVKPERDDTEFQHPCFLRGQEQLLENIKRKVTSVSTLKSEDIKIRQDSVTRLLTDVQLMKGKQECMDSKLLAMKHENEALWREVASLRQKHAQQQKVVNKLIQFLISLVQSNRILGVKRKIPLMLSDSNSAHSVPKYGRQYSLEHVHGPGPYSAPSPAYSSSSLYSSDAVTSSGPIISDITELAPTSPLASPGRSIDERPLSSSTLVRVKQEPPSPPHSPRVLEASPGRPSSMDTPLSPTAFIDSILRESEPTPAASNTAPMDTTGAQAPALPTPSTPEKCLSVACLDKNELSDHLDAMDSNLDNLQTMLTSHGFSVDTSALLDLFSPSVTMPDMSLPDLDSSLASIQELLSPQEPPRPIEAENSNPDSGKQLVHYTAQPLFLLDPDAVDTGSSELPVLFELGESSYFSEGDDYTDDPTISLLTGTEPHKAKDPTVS
Briefly: decrease of HSF1-responsive luciferase luminescence – cell-based, NIH3T3, dose retest, confirmation (AID 2382).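 Further: NIH3T3 fibroblasts with HSF1-driven luciferase reporter stressed by proteasome inhibitor MG132; luminescence from HSF1-driven luciferase expression after 8 hours of MG132 stress.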 Type of test: functional.

In another test the target is T3, X-box-binding protein 1 (Homo sapiens, UniProt P17861).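 Further: confirmatory dose-response counter-screen serving a CHOP assay.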
T3 sequence (P17861 whole entry): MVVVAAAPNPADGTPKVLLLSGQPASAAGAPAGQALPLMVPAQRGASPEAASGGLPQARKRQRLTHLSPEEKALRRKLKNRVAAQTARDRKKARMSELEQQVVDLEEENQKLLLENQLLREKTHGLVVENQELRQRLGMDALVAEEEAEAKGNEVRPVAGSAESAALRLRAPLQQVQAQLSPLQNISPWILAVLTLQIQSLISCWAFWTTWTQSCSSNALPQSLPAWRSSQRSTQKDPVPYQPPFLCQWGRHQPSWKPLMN
The test is classed as functional, Cricetulus griseus.

Test [3] is described as follows: A Cell Based Secondary Assay To Explore Cytotoxicity of Compounds that Sensitize Mycobacterium Tuberculosis to Beta-Lactam Antibiotics. The test is classed as functional.
Test [4] can be described thus: Luminescence Cell-Based Dose Retest to Confirm Inhibitors of Cancer Stem Cells. [Related pubchem assays (depositor defined):AID2717, AID2721]. The test is classed as functional. The following applies: Homo sapiens.
Test [5] has as its target T4, Corticotropin-releasing factor receptor 2/Corticotropin-releasing factor-binding protein (Homo sapiens, UniProt P24387+Q13324).
T4 sequence (Q13324 whole entry): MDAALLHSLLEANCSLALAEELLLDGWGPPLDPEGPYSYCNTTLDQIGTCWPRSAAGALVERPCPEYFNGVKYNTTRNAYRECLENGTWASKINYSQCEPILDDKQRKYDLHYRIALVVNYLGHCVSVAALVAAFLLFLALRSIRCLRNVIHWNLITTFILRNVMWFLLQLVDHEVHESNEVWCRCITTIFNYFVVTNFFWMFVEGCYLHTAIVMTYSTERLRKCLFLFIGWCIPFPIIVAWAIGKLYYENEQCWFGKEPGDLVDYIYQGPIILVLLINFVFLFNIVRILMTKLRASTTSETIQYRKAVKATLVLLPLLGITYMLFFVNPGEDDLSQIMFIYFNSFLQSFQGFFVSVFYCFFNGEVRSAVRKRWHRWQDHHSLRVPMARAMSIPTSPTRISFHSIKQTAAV
T4 sequence (P24387 whole entry): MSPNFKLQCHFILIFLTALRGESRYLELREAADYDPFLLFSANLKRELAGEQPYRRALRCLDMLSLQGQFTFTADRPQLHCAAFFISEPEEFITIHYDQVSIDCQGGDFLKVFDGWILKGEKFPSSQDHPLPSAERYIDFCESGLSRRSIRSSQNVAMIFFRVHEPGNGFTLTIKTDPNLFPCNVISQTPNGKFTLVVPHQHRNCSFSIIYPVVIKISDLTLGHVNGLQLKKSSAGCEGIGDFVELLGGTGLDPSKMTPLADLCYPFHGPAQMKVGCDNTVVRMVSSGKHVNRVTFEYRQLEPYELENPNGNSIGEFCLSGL
Put plainly: activators of CRF receptor 2 with binding protein – uHTS hits, confirmation (AID 602473). Type of test: functional. As to conditions: read-out: EC50_Mean.

Test [6] can be described thus: NIH3T3 cell viability loss – ATP luminescence, mouse fibroblasts, counter-screen, dose response (AID 2010).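 Further: cells exposed to compound for about 90 hours before reading.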 The test is classed as functional, cell-based. (In general: A counterscreen serves to expose hits that act by an unwanted route or on another target.)
A short description of test [7]: Trypanosoma cruzi growth suppression in host cells – NIH3T3 host cells, beta-gal luminescence, confirmation (AID 2044).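 Further: intracellular parasites grown in NIH/3T3 mouse fibroblasts as host cells; luminescent beta-galactosidase reporter signal from transgenic T. cruzi replicating inside host cells; inhibitors lower the luminescence signal.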 The test is classed as functional, cell-based.
For another test, the target named is T5, Bcl-2-like protein 10 (Homo sapiens, UniProt Q9HD36).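 Further: fluorescence polarization from a fluorescein-labelled TR3 peptide binding purified Bcl-B.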
T5 sequence (Q9HD36 whole entry): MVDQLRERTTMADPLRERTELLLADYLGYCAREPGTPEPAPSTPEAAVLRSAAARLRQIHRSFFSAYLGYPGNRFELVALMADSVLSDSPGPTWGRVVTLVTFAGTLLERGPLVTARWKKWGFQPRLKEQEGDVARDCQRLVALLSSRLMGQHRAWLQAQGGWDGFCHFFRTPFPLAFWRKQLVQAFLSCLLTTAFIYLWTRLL
Put plainly: Bcl-B/TR3 peptide binding disruption – biochemical, fluorescence polarization, FITC-TR3 peptide, selectivity assay for Bfl-1 inhibitor project, primary screen (AID 748). (Polarisation of emitted light reports the rotation of a fluorescent probe.)

Test [8] deals with T6, Aryl hydrocarbon receptor (Homo sapiens, UniProt P35869).
T6 sequence (P35869 whole entry): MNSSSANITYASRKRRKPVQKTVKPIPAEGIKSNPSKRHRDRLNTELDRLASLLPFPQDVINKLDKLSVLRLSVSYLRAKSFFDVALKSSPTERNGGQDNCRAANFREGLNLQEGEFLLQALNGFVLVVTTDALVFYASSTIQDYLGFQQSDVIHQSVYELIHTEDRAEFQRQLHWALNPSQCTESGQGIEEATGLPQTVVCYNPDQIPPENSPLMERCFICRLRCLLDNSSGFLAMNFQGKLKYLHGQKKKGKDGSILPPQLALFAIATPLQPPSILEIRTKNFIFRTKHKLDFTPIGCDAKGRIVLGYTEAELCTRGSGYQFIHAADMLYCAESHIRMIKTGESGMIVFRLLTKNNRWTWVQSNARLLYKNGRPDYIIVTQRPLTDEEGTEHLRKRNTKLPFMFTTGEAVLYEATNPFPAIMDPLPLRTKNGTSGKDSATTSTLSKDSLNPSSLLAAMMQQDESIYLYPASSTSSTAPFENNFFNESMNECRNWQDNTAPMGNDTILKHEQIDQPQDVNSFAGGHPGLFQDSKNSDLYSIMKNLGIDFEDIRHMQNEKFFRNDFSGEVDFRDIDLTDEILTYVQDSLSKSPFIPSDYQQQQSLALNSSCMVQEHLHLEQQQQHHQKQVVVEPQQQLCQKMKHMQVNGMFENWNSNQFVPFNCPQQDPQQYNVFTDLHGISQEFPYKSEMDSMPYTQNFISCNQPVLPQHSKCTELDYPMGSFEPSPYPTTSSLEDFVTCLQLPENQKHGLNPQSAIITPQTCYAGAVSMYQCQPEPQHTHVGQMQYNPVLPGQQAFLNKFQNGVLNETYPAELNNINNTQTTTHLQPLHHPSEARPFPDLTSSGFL
Put plainly: Luminescence-based cell-based high throughput dose response assay for activators of the Aryl Hydrocarbon Receptor (AHR). [Related pubchem assays: 2796 (Primary screen (AHR activators in singlicate)), 2845 (Confirmation screen (AHR activators in triplicate)), 434939 (Counterscreen (PXR activators in triplicate)), 2804 (Summary (AHR activators))]. The test is classed as ADME.

The target in another test is T7, Cytochrome P450 1A2 (Homo sapiens, UniProt P05177).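 Further: PubChem cytochrome P450 panel assay, CYP1A2 panel member.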
T7 sequence (P05177 whole entry): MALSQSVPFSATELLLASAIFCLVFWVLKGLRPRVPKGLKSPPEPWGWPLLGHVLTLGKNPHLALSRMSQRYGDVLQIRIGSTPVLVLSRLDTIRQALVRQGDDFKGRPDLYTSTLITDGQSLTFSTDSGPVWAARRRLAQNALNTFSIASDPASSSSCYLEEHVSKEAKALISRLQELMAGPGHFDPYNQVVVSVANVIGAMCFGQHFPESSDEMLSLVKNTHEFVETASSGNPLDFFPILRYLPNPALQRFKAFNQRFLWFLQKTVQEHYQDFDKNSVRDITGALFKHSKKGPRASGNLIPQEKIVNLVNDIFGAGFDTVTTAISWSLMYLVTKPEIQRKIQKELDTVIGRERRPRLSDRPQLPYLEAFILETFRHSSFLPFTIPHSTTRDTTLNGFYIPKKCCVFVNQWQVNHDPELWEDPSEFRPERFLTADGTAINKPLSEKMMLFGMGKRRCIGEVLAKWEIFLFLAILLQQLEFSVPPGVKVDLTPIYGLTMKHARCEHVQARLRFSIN

The next test addresses Cytochrome P450 2C9 (Homo sapiens, UniProt P11712).
A further test concerns INS1. Briefly: INS-1E survival protection against cytokine death – cell-based, luminescence, retest, dose response (AID 449756).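 Further: cell death triggered by IL-1 beta plus TNF-alpha plus IFN-gamma mixture; protective hits raise ATP signal compared with cytokine alone wells.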 The following applies: Rattus norvegicus. The test is classed as functional.

Chain of Cytochrome P450 2C9 (P11712 whole entry): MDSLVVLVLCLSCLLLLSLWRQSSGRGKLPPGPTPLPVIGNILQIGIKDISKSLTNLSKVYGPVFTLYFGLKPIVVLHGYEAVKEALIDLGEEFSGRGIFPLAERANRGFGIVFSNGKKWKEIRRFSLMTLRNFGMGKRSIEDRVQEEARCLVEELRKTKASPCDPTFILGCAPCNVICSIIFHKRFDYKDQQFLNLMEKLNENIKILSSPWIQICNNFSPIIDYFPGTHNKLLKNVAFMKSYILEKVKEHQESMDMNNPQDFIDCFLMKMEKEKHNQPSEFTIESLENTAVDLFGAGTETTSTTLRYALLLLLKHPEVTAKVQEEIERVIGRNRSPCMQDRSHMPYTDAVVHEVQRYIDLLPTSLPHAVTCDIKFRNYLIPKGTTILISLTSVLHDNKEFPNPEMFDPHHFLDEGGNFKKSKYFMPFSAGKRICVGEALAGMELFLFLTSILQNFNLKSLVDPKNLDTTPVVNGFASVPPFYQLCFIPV

For the molecule `Nc1ccc(Nc2nc(-c3cccs3)cs2)cc1`, in test [1], the AC50 was 8.4 µM (active).
With `COc1ccc2sc(-c3ccc(N(C)C)cc3)c(C#CC(C)(C)O)c2c1`, in test [1], the AC50 was 2.73 µM (active).
In the case of `COc1cc(/C=C/c2nc(N)nc(-c3ccccc3O)n2)cc(OC)c1OC`, the EC50 in test [2] was 36.1 µM (active). In addition, the “Absolute IC50 (XBP1)” value at X-box-binding protein 1 was 10 µM.
As to `C=CCNCCCOc1ccc(Cl)cc1C(C)(C)C`, the CC50 in test [3] is 28.8 µM (active). In addition, the AC50 in test [4] was 16.1 µM (active).
As to `COc1cc(/C=C(/C#N)c2nc(O)c3ccccc3n2)ccc1O`, at X-box-binding protein 1, the “Absolute IC50 (XBP1)” value stood at 10 µM. Further, the EC50 in test [5] is > 53 µM (inactive).
Take `Fc1ccccc1N1CCN(C2CCCN(Cc3cccc(C(F)(F)F)c3)C2)CC1` (centres undefined): the values for the EC50 (in the test “cells”; in test [6]; in [7]) were 0.656 µM (active), > 60 µM (not active) and < 0.1 µM (active), respectively.
`CCOc1ccc(C2=C/C(=C/c3cccnc3)C(=O)O2)cc1`: the “Absolute IC50 (XBP1)” value on X-box-binding protein 1 turned out to be 10 µM.
Turning to `Brc1ccc2ncnc(Nc3ccc(N4CCOCC4)cc3)c2c1`, the EC50 in test [6] was > 60 µM (not active); in test [8] it was 1.14 µM (active); in test [7], 0.92 µM (active). Moreover, the IC50 at Bcl-2-like protein 10 was > 50 µM (inactive).
As to `CC(=O)Nc1ccc(Nc2ncc([N+](=O)[O-])c(Nc3ccc(NC(C)=O)cc3)n2)cc1`, the AC50 on Cytochrome P450 1A2 was 22.4 µM (inconclusive); on Cytochrome P450 2C9, 0.355 µM (inconclusive). In test [3], the CC50 is > 40 µM (active).
On to `CN1CCC(OC(=O)c2ccc(Br)cc2)CC1`, for which the EC50 was 0.029 µM (active) in “cells”, > 60 µM (not active) in test [6] and < 0.1 µM (active) in [7].
On to `CCCNc1nc(Cl)nc(Nc2ccc(Cl)cc2)n1`, for which the EC50 in test [8] was 3.38 µM (active).
With `O=C(CN(C(=O)Cn1nnc(-c2ccc(F)cc2)n1)C1CCCC1)NC1CCCC1`, the AC50 in test [1] was 0.184 µM (active).
`COc1cc(/C=N/NC(=O)c2cccnc2)cc2c1OCO2`: in [8], the EC50 was 6.16 µM (active).
`COc1ccc2c(c1)N(C)/C(=C/c1cccc[n+]1C)S2`: in the test with INS1, the half-maximal activity concentration (AC50) is 1.13 µM (active). Also, the EC50 is 0.029 µM (active) in “cells”, > 60 µM (not active) in [6] and < 0.1 µM (active) in [7].

A word on the AC50: it is the concentration giving half of the maximal activity seen. Usually CC50 stands for the concentration that lowers cell viability or growth by half. What is called IC50 is the concentration that inhibits the measured activity by half.
